System: tested viruses (K/09, rK09/NA:Y275, K/2785)
Type: cell-based, 2009 pandemic H1N1 virus
Details: read-out: concentration sufficient to restrict viral replication (EC50)

## NC(=O)c1nc(F)cnc1O [Favipiravir, 6-fluoro-3-hydroxy-2-pyrazinecarboxamide]
  EC50: 8.39 to 14.7 µM
